This note sets out measurements from US6172099A, “Tricyclic compounds having saturated rings and medicinal compositions containing the same” (Asahi Kasei Kogyo Kabushiki Kaisha, priority 1997, dated 2001).

Counter-ions that a name gives are not always drawn. Like-named read-outs stand apart in the source and are kept apart here.

One data set deals with T1, human β3 (Homo sapiens, UniProt P13945).
T1 construct: inserted the 1st exon of human β3 gene was transfected; expressed in transfected cells; host or cells: CHO cells (Chinese hamster ovary), pcDNA3 vector
T1 sequence (P13945 1-402 limits assumed): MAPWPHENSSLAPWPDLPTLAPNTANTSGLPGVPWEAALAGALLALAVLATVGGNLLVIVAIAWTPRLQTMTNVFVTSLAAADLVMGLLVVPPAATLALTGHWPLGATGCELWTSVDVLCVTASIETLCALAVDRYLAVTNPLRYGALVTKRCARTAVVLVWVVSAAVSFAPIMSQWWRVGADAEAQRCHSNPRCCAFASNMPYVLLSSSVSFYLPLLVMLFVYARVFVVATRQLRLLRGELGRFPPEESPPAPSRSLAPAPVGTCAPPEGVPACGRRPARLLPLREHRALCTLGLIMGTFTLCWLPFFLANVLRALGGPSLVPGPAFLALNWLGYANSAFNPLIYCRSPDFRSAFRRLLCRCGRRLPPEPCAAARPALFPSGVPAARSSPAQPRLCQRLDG
Nature of the data set: Human β3-agonist activity (cAMP accumulation in CHO cells transfected with human β3 gene). The class given is cell-based. On the procedure: Human β3-agonist Activity Human β3-agonist activity was examined using CHO cells (chinese hamster ovarian cells) to which pcDNA3 (in vitrogen) inserted the 1st exon of human β3 gene was transfected. Human β3 fragment was obtained by PCR using human fat tissue cDNA (supplied from Clontech) with a […] [Krief et al, J. Clin. Invest., Vol. 91, p344-349 (1993)]. And then full length of human […] was cloned using this fragment as a probe.
The cells were cultured in a HAM F-12 medium containing 10% of fetal bovine serum, 400 μg/ml of Geneticin (Gibco BRL), 100 U/ml penicillin and 100 μg/ml streptomycin. 5×10^5 cells were placed on a 6-well plate and cultured for 24 hours, after which the medium was changed to a HAM F-12 medium without serum and was kept for 2 hours. Each test compound was first dissolved in DMSO, and then diluted with a HAM F-12 medium containing 1 mM isobutylmethyl xanthine and 1 mM ascorbic acid. A 10-fold dilution in the range of 10^-5 to 10^-12 M was added into the cells.
After culturing for 30 minutes, culture medium was withdrawn, 0.5 ml of 1 N NaOH was added and was kept for 20 minutes. Ater then 0.5 ml of 1 N acetic acid was added with subsequent agitation and centrifugation. Finally, concentration of cAMP were analyzed using cAMP EIA KIT (Cayman). […] CL316,243 was synthesized by the method given in J. Med. Chem., Vol. 35, p3081-3084 (1992).

Details of data set [1]: species or system male ddy mice. Conditions: mouse, in vivo, po, 100 mg/kg. As to the method:
The compounds of Example 2 was orally administered to 6 weeks age male ddy mice (supplied from the firm Nippon Chrles Liver) at a dose of 100 mg/kg.

The test system of the next data set is rat adipocytes. Put plainly: Lipolytic activity in rat adipocytes (glycerol concentration). The format is cell-based. The following applies: Adipocyte; for EC50: rat adipocytes, glycerol release, 37° C., 1 hour, read-out: ED50 (the source's name); for Emax: Rattus norvegicus, 1 h, read-out: Intrinsic activity(%). As to the method:
Lipolytic Activity in Rat Adipocytes Adipose tissues were collected from epididymis and minced. Krebs-Ringer buffer solution containing 1 mg/ml Collagenase (Sigma) and 1% of bovine serum albumin was added in an amount of 3 ml per one gram of the tissue. These cells were then incubated at 37° C. for 30 minutes with shaking and then undigested tissues were removed with a nylon filter. The resulting adipocytes were washed four times with Krebs-Ringer buffer, and then cells was diluted to 2×10^5 cells/ml with Krebs-Ringer buffer solution containing 4% of bovine serum albumin. These cells were transferred to Eppendorf tubes each in an amount of 300 μl. Each 300 μl of a culture medium containing the test compounds was added to these tubes and was held at 37° C. for 1 hour with shaking. Stimulation was stopped by cooling with ice. After centrifugation, the adipocytes were taken off with an aspirator, and then the concentration of glycerol was determined using F-KIT GLYCEROL (Behringer-Manheim).

Data set [2] is described as follows: Lipolytic effect in mice (serum free fatty acid). Conditions: intraperitoneal, 10 mg/kg; 1 hour. The class given is in vivo, male ddy mice. On the procedure:
Blood Glucose Lowering Effect and Lipolytic Effect Glucose was subcutaneously administered to male ddy mice (supplied from the dirm Nippon Charles Liver) of 6 weeks age at a dose of 2 g/kg. […] After one hour, blood sample was taken from abdominal aorta, serum was separated and served as the sample. Lipolytic Effect: Amount of free fatty acid in the samples was determined using NEFA HA TEST WAKO (of the firm Wako Pure Chemical). […] Therefore, it was shown that they are useful for preventive and therapeutic treatment of hyperlipemia and obesity.

Data set [3] in a line: Blood glucose lowering effect in glucose-loaded mice. The format is in vivo, male ddy mice. The following applies: intraperitoneal, 10 mg/kg; 1 hour; glucose load 2 g/kg s.c. As to the method: Blood Glucose Lowering Effect and Lipolytic Effect
Glucose was subcutaneously administered to male ddy mice (supplied from the dirm Nippon Charles Liver) of 6 weeks age at a dose of 2 g/kg. The animals were also treated with either one of test compounds via oral or intraperitoneal administration at a dose of 0.1 ml per 10 g of body weight. After one hour, blood sample was taken from abdominal aorta, serum was separated and served as the sample.
Blood Glucose Lowering Effect:
The samples prepared as above were analyzed for the serum glucose concentration by Auto analyzer (SUPER Z of the firm M. C. Medical). For the analyzer kit, Glucose 11 HA TEST WAKO (of the firm Wako Pure Chemical) was used.
% decrease in blood glucose=[(A-B)/(A-C)]×100
in whcih A represents the glucose concentration after loading glucose, B represents the glucose concentration after administration of the compound and C is the usual level of the glucose concentration.

The mark [4] stands for this setting: CHO cells expressing human β3, cAMP, 30 minutes; read-out: ED50 (the source's name).
Setting [5] is: CHO, read-out: Intrinsic activity(%).

For `CS(=O)(=O)Nc1cc(C(O)CNCCOc2ccc3c4c([nH]c3c2)CCCC4)ccc1Cl` (racemic) [Example 14, (±)-N-[5-[2-[2-(5,6,7,8-tetrahydro-9H-carbazol-2-yloxy)ethylamino]-1-hydroxyethyl]-2-chlorophenyl]methanesulfonamide hydrochloride], at human β3 (setting [4]), the EC50 was found to be 25 nM. For the same molecule, the Emax on human β3 (setting [5]) came out at 62%.
As for `CS(=O)(=O)Nc1cccc(C(O)CNCCOc2ccc3c4c([nH]c3c2)CCCC4)c1` (racemic) [Example 17, (±)-N-[3-[2-[2-(5,6,7,8-tetrahydro-9H-carbazol-2-yloxy)ethylamino]-1-hydroxyethyl]phenyl]methanesulfonamide hydrochloride], the EC50 at human β3 (setting [4]) was determined as 92 nM. Also, the Emax on human β3 (setting [5]) amounted to 78%.
Take `C[C@H](Cc1ccc(OCC(=O)O)cc1)NC[C@H](O)c1cccc(Cl)c1` [BRL37344, reference compound]: the Emax on human β3 (CHO; read-out: Intrinsic activity(%)) was 29%.
Consider `CN(C)S(=O)(=O)Nc1cc([C@@H](O)CNCCOc2ccc3c4c([nH]c3c2)CCCC4)ccc1O.Cl` [Example 2, (R)-N'-[5-[2-[2-(5,6,7,8-tetrahydro-9H-carbazol-2-yloxy)ethylamino]-1-hydroxyethyl]-2-hydroxyphenyl]-N,N-dimethylsulfamide hydrochloride], for which the fatal cases entry in data set [1] was “no fatal case was found”. Moreover, the EC50 in the data set on rat adipocytes was determined as 2000 nM; at human β3 (setting [4]) it was 0.26 nM. Moreover, the values for the Emax with rat adipocytes and on human β3 (setting [5]) were 127% and 63%, respectively. In addition, the “increase of free fatty acid concentration” value in data set [2] is listed as “showed an increase of free fatty acid concentration”. For the same molecule, in data set [3], the “reduction of blood glucose” value is “showed a reduction of blood glucose”.
`CS(=O)(=O)Nc1cc([C@@H](O)CNCCOc2ccc3c4c([nH]c3c2)CCCC4)ccc1OCc1ccccc1` [Example 5, (R)-N-[5-[2-[2-(5,6,7,8-tetrahydro-9H-carbazol-2-yloxy)ethylamino]-1-hydroxyethyl]-2-benzyloxyphenyl]methanesulfonamide hydrochloride]: at human β3 (setting [4]), the EC50 was found to be 570 nM. Besides, the Emax on human β3 (setting [5]) was 101%.
As to `CS(=O)(=O)Nc1cc([C@@H](O)CNCCOc2ccc3c4c([nH]c3c2)CCCC4)ccc1O` [Example 6, (R)-N-[5-[2-[2-(5,6,7,8-tetrahydro-9H-carbazol-2-yloxy)ethylamino]-1-hydroxyethyl]-2-hydroxyphenyl]methanesulfonamide hydrochloride], the EC50 in the data set on rat adipocytes came to 200 nM; on human β3 (setting [4]) it was 0.021 nM. Besides, the Emax in the data set on rat adipocytes stood at 132%; at human β3 (setting [5]), 84%.
Take `CS(=O)(=O)Nc1cc([C@@H](O)CNCCOc2ccc3c4c([nH]c3c2)CCCC4)ccc1F` [Example 9, (R)-N-[5-[2-[2-(5,6,7,8-tetrahydro-9H-carbazol-2-yloxy)ethylamino]-1-hydroxyethyl]-2-fluorophenyl]methanesulfonamide hydrochloride]: at human β3 (setting [4]), the EC50 came out at 29 nM. The Emax at human β3 (setting [5]) is 47%.
Regarding `CS(=O)(=O)Nc1cc([C@@H](O)CNCCOc2ccc3c4c([nH]c3c2)CCCC4)ccc1Br` [Example 15, (R)-N-[5-[2-[2-(5,6,7,8-tetrahydro-9H-carbazol-2-yloxy)ethylamino]-1-hydroxyethyl]-2-bromophenyl]methanesulfonamide hydrochloride], on human β3 (setting [4]), the EC50 came out at 40 nM. The Emax on human β3 (setting [5]) is 72%.
Take `CN(C)S(=O)(=O)Nc1cc([C@@H](O)CNCCOc2ccc3c4c(oc3c2)CCCC4)ccc1O` [Example 22, (R)-N'-[5-[2-[2-(6,7,8,9-tetrahydrodibenzofuran-3-yloxy)ethylamino]-1-hydroxyethyl]-2-hydroxyphenyl]-N,N-dimethylsulfamide hydrochloride]: on human β3 (setting [4]), the EC50 stood at 27 nM. The Emax at human β3 (setting [5]) was 84%.
Turning to `CS(=O)(=O)Nc1cc([C@@H](O)CNCCOc2ccc3c4c(oc3c2)CCCC4)ccc1O` [Example 26, (R)-N-[5-[2-[2-(6,7,8,9-tetrahydrodibenzofuran-3-yloxy)ethylamino]-1-hydroxyethyl]-2-hydroxyphenyl]methanesulfonamide hydrochloride], the EC50 is 39 nM in the data set with rat adipocytes and 31 nM at human β3 (setting [4]). The Emax was 118% in the data set on rat adipocytes and 111% on human β3 (setting [5]).
The matching figures for `CS(=O)(=O)Nc1cc([C@@H](O)CNCCOc2ccc3c4c(sc3c2)CCCC4)ccc1O` [Example 28, (R)-N-[5-[2-[2-(6,7,8,9-tetrahydrodibenzothiophen-3-yloxy)ethylamino]-1-hydroxyethyl]-2-hydroxyphenyl]methanesulfonamide hydrochloride]: 400 nM, 0.11 nM, 140% and 96%.
On to `CC(C)NCC(O)c1ccc(O)c(O)c1` (stereo not shown) [isoproterenol, reference compound], for which, in the data set on rat adipocytes, the EC50 was found to be 92 nM and the Emax was 100%.
